{
  "source": "patent US12697359B2",
  "about": "“Composition for preventing hair loss and promoting hair growth comprising postbiotic components from heat-treat Limosilactobacillus fermentum LM1020” (priority 2023, dated 2026)",
  "tested_on": "dermal papilla cells",
  "experiment": "Dermal papilla cell growth promotion effect of functional raw materials and heat-treated LM1020, alone or combined (Colby prediction)",
  "assay_type": "cell-based, human",
  "conditions": "for effect on growth of dermal papilla cells / Effect of promoting growth of dermal papilla cell (%) Measured value: medium lacking growth factor; for Effect of promoting growth of dermal papilla cell (%) Measured value: raw material alone or LSD mixture, without LM1020",
  "protocol": "The effect on the growth of dermal papilla cells was confirmed when the heat-treated Limosilactobacillus fermentum LM1020 was used together with L-menthol, salicylic acid, and dexpanthenol, which are active ingredients frequently used for functional cosmetics that help relieve hair loss symptoms. After the dermal papilla cells were seeded in a 96-well plate and cultured for 24 hours, the medium in the well was replaced with a medium lacking growth factor and further cultured for 24 hours. Then, the heat-treated Limosilactobacillus fermentum LM1020, L-menthol, salicylic acid, and dexpanthenol were used alone or mixed in a ratio of […] and used for treatment of dermal papilla cells prepared by the above-described method to determine the effect on the growth of the dermal papilla cells.\nA growth rate of dermal papilla cells when cultured alone and growth rates of dermal papilla cells when treated alone or in a combination of L-menthol, salicylic acid, dexpanthenol, and the heat-treated Limosilactobacillus fermentum LM1020 were calculated. Then, the effects of the respective treatment materials on the promotion of growth of dermal papilla cells were calculated using the formula below and compared with each other. All the tests were repeated three times, and the average of each result was calculated and compared. • Dermal papilla cell growth promotion effect (%)=(B−A)÷A×100 • A=Growth rate of dermal papilla cells in non-treatment group • B=Growth rate of dermal papilla cells when treated with L-menthol, salicylic acid, dexpanthenol, and heat-treated Limosilactobacillus fermentum LM1020\nMeanwhile, it was confirmed that when the heat-treated Limosilactobacillus fermentum LM1020 is used for treatment together with compounds of L-menthol, salicylic acid, and dexpanthenol, it is possible to overcome the effect of the compounds on the inhibition of growth of dermal papilla cells and promote the growth of dermal papilla cells. In order to thoroughly understand their synergistic effect, the effect to be predicted was calculated using the Colby formula, and a prediction value was compared with an experimental value (measurement value) to verify whether a synergistic effect exceeding the prediction value can be achieved.",
  "data": [
    {"compound": "CC(C)(CO)[C@@H](O)C(=O)NCCCO", "note": "[dexpanthenol]", "values": [
      {"measurement": "effect on promotion of growth of dermal papilla cells compared with heat-treated LM1020", "setting": "dexpanthenol alone vs LM1020 alone", "value": "lower than that of the heat-treated Limosilactobacillus fermentum LM1020 at all concentrations"},
      {"measurement": "effect on growth of dermal papilla cells", "value": "able to promote the growth of dermal papilla cells"},
      {"measurement": "Effect of promoting growth of dermal papilla cell (%) Measured value", "value": "2.35 ± 1.61", "unit": "%"}
    ]},
    {"compound": "CC(C)[C@@H]1CC[C@@H](C)C[C@H]1O", "note": "[L-menthol]", "values": [
      {"measurement": "effect on growth of dermal papilla cells", "value": "inhibit the growth of dermal papilla cells"},
      {"measurement": "Effect of promoting growth of dermal papilla cell (%) Measured value", "value": "−12.05 ± 3.31", "unit": "%"}
    ]},
    {"compound": "O=C(O)c1ccccc1O", "note": "[salicylic acid]", "values": [
      {"measurement": "effect on growth of dermal papilla cells", "value": "inhibit the growth of dermal papilla cells"},
      {"measurement": "Effect of promoting growth of dermal papilla cell (%) Measured value", "value": "−0.39 ± 0.80", "unit": "%"}
    ]}
  ]
}
